Measurements: ChEMBL document CHEMBL1145279, “Discovery and development of dimeric podocarpic acid leads as potent agonists of liver X receptor with HDL cholesterol raising activity in mice and hamsters” (Bioorg Med Chem Lett, 2005)

Legend:
[1] = biological target: T1, Oxysterols receptor LXR-alpha (Homo sapiens, UniProt Q13133); assay: Displacement of [3H2]-F3-methyl AA (1) from liver X receptor-alpha in SPA assay
T1 sequence (Q13133 whole entry): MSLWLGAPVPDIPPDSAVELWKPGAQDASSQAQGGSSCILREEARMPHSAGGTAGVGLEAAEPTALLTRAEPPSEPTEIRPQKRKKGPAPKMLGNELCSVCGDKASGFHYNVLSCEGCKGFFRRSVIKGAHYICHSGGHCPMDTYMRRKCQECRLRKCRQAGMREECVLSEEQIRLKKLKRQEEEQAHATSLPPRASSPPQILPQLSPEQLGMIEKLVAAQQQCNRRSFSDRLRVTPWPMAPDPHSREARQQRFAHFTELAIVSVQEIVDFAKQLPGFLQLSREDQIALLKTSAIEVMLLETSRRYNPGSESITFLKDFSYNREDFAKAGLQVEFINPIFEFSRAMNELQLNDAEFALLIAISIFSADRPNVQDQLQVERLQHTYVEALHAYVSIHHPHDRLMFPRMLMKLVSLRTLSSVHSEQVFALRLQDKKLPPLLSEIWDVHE

[2] = biological target: T2, Oxysterols receptor LXR-beta (Homo sapiens, UniProt P55055); assay: Effective concentration for cofactor association with recombinant liver X receptor-beta
T2 sequence (P55055 whole entry): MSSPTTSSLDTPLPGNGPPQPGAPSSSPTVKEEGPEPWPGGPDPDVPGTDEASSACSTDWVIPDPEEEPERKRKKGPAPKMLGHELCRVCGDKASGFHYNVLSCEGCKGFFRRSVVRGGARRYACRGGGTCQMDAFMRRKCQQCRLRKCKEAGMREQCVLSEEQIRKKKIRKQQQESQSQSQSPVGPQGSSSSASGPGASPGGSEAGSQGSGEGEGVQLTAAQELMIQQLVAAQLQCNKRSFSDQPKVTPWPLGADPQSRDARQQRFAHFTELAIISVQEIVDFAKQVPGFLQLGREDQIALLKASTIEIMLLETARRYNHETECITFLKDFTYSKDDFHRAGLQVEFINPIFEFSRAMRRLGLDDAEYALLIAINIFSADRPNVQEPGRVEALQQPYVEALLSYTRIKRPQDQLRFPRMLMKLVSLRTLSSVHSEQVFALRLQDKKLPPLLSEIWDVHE

[3] = biological target: T1, Oxysterols receptor LXR-alpha; assay: Effective concentration against liver X receptor-alpha in HEK293 cell transactivation assay; type: cell-based
[4] = biological target: T2, Oxysterols receptor LXR-beta; assay: Displacement of [3H2]-F3-methyl AA (1) from liver X receptor-beta in SPA assay
[5] = biological target: T1, Oxysterols receptor LXR-alpha; assay: Effective concentration for cofactor association with recombinant liver X receptor-alpha
[6] = biological target: T2, Oxysterols receptor LXR-beta; assay: Effective concentration against liver X receptor-beta in HEK293 cell transactivation assay; type: cell-based
[7] = biological target: T3, Oxysterols receptor LXR-alpha (Homo sapiens) (UniProt Q13133); assay: Percent inhibition of [3H2]-F3-methyl AA (1) binding to liver X receptor-alpha at 100 uM
T3 sequence (whole entry): T1 sequence (Q13133 whole entry)

[8] = biological target: T4, Oxysterols receptor LXR-beta (Homo sapiens) (UniProt P55055); assay: Percent inhibition of [3H2]-F3-methyl AA (1) binding to liver X receptor-beta at 100 uM
T4 sequence (whole entry): T2 sequence (P55055 whole entry)

[9] = biological target: T1, Oxysterols receptor LXR-alpha; assay: Displacement of [3H2]-F3-methyl AA (1) from liver X receptor-alpha in SPA assay; Not active
[10] = biological target: T2, Oxysterols receptor LXR-beta; assay: Displacement of [3H2]-F3-methyl AA (1) from liver X receptor-beta in SPA assay; Not active
[11] = biological target: T1, Oxysterols receptor LXR-alpha; assay: Effective concentration for cofactor association with recombinant liver X receptor-alpha; Not active
[12] = biological target: T2, Oxysterols receptor LXR-beta; assay: Effective concentration for cofactor association with recombinant liver X receptor-beta; Not active

Row | IC50 [1] | EC50 [3] | IC50 [9] | IC50 [10] | EC50 [11] | EC50 [12] | Structure (SMILES) | EC50 [2] | IC50 [4] | EC50 [5] | further results
1 | 2 nM | 10 nM | – | – | – | – | CC(=O)Oc1ccc2c(c1)[C@@]1(C)CCCC(C)(C(=O)OC(=O)[C@@]3(C)CCC[C@]4(C)c5cc(OC(C)=O)ccc5CC[C@@H]34)[C@@H]1CC2 (stereo partly specified) | 2 nM | 2 nM | 2 nM | EC50 [6]: 10 nM
2 | – | – | Not Active | Not Active | Not Active | Not Active | C[C@]1(C(=O)O)CCC[C@]2(C)c3cc(OP(=O)(O)Oc4ccc5c(c4)[C@@]4(C)CCC[C@](C)(C(=O)O)[C@@H]4CC5)ccc3CC[C@@H]12 | – | – | – | –
3 | – | – | Not Active | Not Active | Not Active | Not Active | CC1OC(Oc2cc3c(cc2-c2cc4c(cc2O)[C@@]2(C)CCC[C@](C)(C(=O)O)[C@@H]2CC4)CC[C@H]2[C@@](C)(C(=O)O)CCC[C@]32C)C(O)C(O)C1O (stereo partly specified) | – | – | – | –

The next lines start with the compound.

Row | Structure (SMILES) | IC50 [1] | EC50 [3] | IC50 [9] | IC50 [10] | EC50 [11] | EC50 [12] | EC50 [2] | IC50 [4] | EC50 [5] | further results
4 | CC(C)CC[C@@H](O)[C@@H](C)[C@H]1CC[C@H]2[C@@H]3CC=C4C[C@@H](O)CC[C@]4(C)[C@H]3CC[C@]12C [22(R)-HYDROXYCHOLESTEROL] | – | – | – | – | – | – | 15000 nM | – | 15000 nM | inhibition [7]: 70%; inhibition [8]: 60%
5 | C[C@]1(C(=O)O)CCC[C@]2(C)c3cc(O)ccc3CC[C@@H]12 [PODOCARIC ACID] | > 50000 nM | – | – | – | – | – | > 50000 nM | > 50000 nM | > 50000 nM | –
6 | CCCc1c(OCCCSc2ccc(CC(=O)O)cc2Cl)ccc2c(C(F)(F)F)noc12 | 35.4 nM | 1790 nM | – | – | – | – | – | – | 35.4 nM | EC50 ([3]; hek293): 1790 nM
